What was measured:
Type in all cases: physicochemical
[1] = Retention of solid form after drying under vacuum; settings: dried under vacuum at about 45° C. overnight (about 18-20 h)
Procedure: (§1) About 120 mg of dasatinib is dispensed in about 1 mL of ethyl formate and stirred at temperatures of about 15° C. or about 45° C. for about 24 h. The slurries that are obtained at either of two temperatures are filtered, to yield Form I of ethyl formate solvate of dasatinib.

[2] = Retention of solid form under high humidity conditions; settings: about ≥95% relative humidity (RH) overnight (about 18-20 h), dried material
Procedure: as §1

[3] = Moisture uptake on exposure to 0-95% RH; settings: exposed to 0-95% RH
[4] = Storage stability at controlled temperature/relative humidity

solid form after drying under vacuum [1]: retains its form | solid form after exposure to high humidity [2]: retains its form | moisture uptake [3]: < 1% | stability on storage ([4]; 25° C./97% RH): stable up to 5 months | stability on storage ([4]; 40° C./75% RH): stable up to 5 months
SMILES: Cc1nc(Nc2ncc(C(=O)Nc3c(C)cccc3Cl)s2)cc(N2CCN(CCO)CC2)n1 [dasatinib]

— patent publication US11440908B2, “Crystalline forms of dasatinib” (Johnson Matthey Public Limited Company, priority 2018, dated 2022)
